The target in one assay is T1, human GIP receptor (Homo sapiens, UniProt P48546).
T1 construct: expressed in transfected cells; crude membranes
T1 sequence (P48546 22-466): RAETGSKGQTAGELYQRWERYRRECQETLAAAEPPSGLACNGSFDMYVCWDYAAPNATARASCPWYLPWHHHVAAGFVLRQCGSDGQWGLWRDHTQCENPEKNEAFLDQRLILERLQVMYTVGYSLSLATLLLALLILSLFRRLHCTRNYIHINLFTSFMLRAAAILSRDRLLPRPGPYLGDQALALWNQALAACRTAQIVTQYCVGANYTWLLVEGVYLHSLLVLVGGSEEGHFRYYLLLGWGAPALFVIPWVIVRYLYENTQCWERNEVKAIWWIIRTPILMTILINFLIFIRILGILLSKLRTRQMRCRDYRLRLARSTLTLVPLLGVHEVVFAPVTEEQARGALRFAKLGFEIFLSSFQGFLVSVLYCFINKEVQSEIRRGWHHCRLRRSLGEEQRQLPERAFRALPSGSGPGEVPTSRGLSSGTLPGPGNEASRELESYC
Nature of the assay: [125I]-GIP binding (SPA), human GIP receptor. The settings on record: read-out: hGIPR Ki, nM (SEM, n).

Assay [1] concerns the target T2, gastric inhibitory peptide receptor (GIPR) (Homo sapiens, UniProt P48546).
T2 sequence (P48546 22-466): T1 sequence (P48546 22-466)
Nature of the assay: cAMP pharmacological functional assay in presence of casein, hGIPR. The settings on record: HEK293 cells expressing hGIPR, 0.1% Casein, geometric mean; read-out: hGIPR cAMP Rel EC50 nM (SEM, n). The format is cell-based.

A further assay addresses T3, human Gcg receptor (Homo sapiens, UniProt P47871).
T3 construct: expressed in transfected cells; crude membranes
Nature of the assay: [125I]-Glucagon binding (SPA), human Gcg receptor. The settings on record: read-out: hGLcgR Ki, nM (SEM, n). The method, boiled down:
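Crude membranes from cells expressing the receptor, prepared by hypotonic lysis in 50 mM Tris HCl pH 7.5 with protease inhibitors, homogenization and differential centrifugation, were used in a WGA-bead SPA. Binding buffer: 25 mM HEPES pH 7.4, 2.5 mM CaCl2, 1 mM MgCl2, bacitracin, Tween-20.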

Assay [2] has as its target human GLP-1 receptor (GLP-1R) (Homo sapiens, UniProt P43220). Nature of the assay: cAMP pharmacological functional assay in presence of casein, hGLP-1R. It counts as cell-based. The settings on record: HEK293 cells expressing hGLP-1R, 0.1% Casein, geometric mean; read-out: hGLP1R cAMP Rel EC50 nM (SEM, n).
Another assay has as its target human GLP-1R (Homo sapiens, UniProt P43220). Nature of the assay: [125I]-GLP-1 binding (SPA), human GLP-1 receptor. The arrangement: expressed in transfected cells; crude membranes. The settings on record: read-out: hGLP1R Ki, (nM) (SEM, n). In short, it runs like this: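 Ki values are geometric means with SEM over independent replicates on different days, derived from IC50s fitted by four-parameter nonlinear regression. The assay used crude cell membranes in HEPES buffer, pH 7.4, containing CaCl2, MgCl2, bacitracin and TWEEN-20.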

This passage reports Ki and EC50 results from US12252524B2, “GIP/GLP1 co-agonist compounds” (Eli Lilly and Company, priority 2018, dated 2025).

SMILES strings stand for the structures. Numbered stars: 1 amine (or outer) side, 2 acyl side, 3 side chain; on linkers, the order of the positions; unused ones are H or OH. Square brackets hold non-standard residues; d marks the D form. Side chains are listed from the residue outwards. Peptide text beside a SMILES is read from it. * marks the point of attachment. C18 diacid = O=C(O)CCCCCCCCCCCCCCCCC(=O)*; αMePhe(2-F) = C[C@](N)(Cc1ccccc1F)C(=O)O; γGlu = O=C(O)[C@H](CCC(=O)[*:2])N[*:1]; αMeY = C[C@](N)(Cc1ccc(O)cc1)C(=O)O; 4Pal = N[C@@H](Cc1ccncc1)C(=O)O; αMeL = CC(C)C[C@](C)(N)C(=O)O; Orn = NCCC[C@H](N)C(=O)O; AEEA = NCCOCCOCC(=O)O; Aib = CC(C)(N)C(=O)O

human GLP-1R, sequence (P43220 24-463): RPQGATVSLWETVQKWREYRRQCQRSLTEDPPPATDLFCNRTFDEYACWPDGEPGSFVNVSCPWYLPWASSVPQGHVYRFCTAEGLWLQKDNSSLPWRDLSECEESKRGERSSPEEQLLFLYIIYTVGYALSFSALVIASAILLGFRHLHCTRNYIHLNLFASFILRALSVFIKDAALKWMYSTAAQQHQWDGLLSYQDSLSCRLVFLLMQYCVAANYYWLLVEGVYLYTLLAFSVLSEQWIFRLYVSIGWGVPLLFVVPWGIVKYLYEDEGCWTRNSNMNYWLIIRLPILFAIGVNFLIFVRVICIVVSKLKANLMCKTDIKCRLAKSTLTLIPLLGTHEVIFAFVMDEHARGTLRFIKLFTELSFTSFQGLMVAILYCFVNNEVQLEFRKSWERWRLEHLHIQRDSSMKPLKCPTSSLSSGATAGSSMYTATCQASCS
human GLP-1 receptor (GLP-1R), sequence (P43220 24-463): as above
T3 sequence (P47871 26-477): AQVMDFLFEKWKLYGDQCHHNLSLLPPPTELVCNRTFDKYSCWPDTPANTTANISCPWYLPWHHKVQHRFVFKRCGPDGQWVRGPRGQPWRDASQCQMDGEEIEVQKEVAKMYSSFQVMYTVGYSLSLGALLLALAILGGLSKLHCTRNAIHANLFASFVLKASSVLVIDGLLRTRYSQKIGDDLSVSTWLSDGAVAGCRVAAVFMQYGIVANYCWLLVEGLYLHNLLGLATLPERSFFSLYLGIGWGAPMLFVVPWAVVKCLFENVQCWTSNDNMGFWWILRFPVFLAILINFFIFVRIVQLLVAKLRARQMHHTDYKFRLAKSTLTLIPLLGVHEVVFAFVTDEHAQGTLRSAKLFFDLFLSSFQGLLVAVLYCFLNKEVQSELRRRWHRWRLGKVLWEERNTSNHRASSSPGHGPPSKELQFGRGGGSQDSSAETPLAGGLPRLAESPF

Usually Ki stands for a dissociation constant, usually derived from enzyme kinetics or from competition with a known ligand. In general, EC50 refers to the concentration that produces a half-maximal response. As for `CC[C@H](C)[C@H](NC(=O)[C@H](CC(C)C)NC(=O)[C@](C)(Cc1ccc(O)cc1)NC(=O)[C@@H](CCC(=O)O)NC(=O)[C@@H](NC(=O)[C@H](Cc1ccccc1)NC(=O)[C@H](CCC(=O)O)NC(=O)C(C)(C)NC(=O)[C@H](CCC(N)=O)NC(=O)[C@H](C)NC(=O)[C@H](CCCCNC(=O)COCCOCCNC(=O)COCCOCCNC(=O)CC[C@H](NC(=O)CCCCCCCCCCCCCCCCC(=O)O)C(=O)O)NC(=O)[C@H](CCCN)NC(=O)[C@H](CC(=O)O)NC(=O)[C@H](CC(C)C)NC(=O)[C@](C)(CC(C)C)NC(=O)[C@@H](NC(=O)[C@H](CO)NC(=O)[C@H](CC(C)C)NC(=O)[C@H](CC(=O)O)NC(=O)[C@H](CO)NC(=O)[C@@H](NC(=O)[C@](C)(Cc1ccccc1F)NC(=O)[C@@H](NC(=O)CNC(=O)[C@H](CCC(=O)O)NC(=O)C(C)(C)NC(=O)[C@@H](N)Cc1ccc(O)cc1)[C@@H](C)O)[C@@H](C)O)[C@@H](C)CC)[C@@H](C)CC)C(=O)N[C@@H](CCC(=O)O)C(=O)NCC(=O)NCC(=O)N1CCC[C@H]1C(=O)N[C@@H](CO)C(=O)N[C@@H](CO)C(=O)NCC(=O)N[C@@H](C)C(=O)N1CCC[C@H]1C(=O)N1CCC[C@H]1C(=O)N1CCC[C@H]1C(=O)N[C@@H](CO)C(N)=O` [Example 238] (H-Y[Aib]EGT[αMePhe(2-F)]TSDLSI[αMeL]LD[Orn]K([AEEA-AEEA-γGlu-C18 diacid])AQ[Aib]EFI[dE][αMeY]LIEGGPSSGAPPPS-NH2), the Ki at human GIP receptor came to 0.0403 nM; on human Gcg receptor it was 230 nM; at human GLP-1R, 0.548 nM. Also, the values for the EC50 in assay [1] and in assay [2] were 0.0296 nM and 0.0241 nM, respectively.
Turning to `CC[C@H](C)[C@H](NC(=O)[C@H](CC(C)C)NC(=O)[C@](C)(Cc1ccc(O)cc1)NC(=O)[C@@H](CCC(=O)O)NC(=O)[C@@H](NC(=O)[C@H](Cc1ccccc1)NC(=O)[C@@H](NC(=O)C(C)(C)NC(=O)[C@H](CCC(N)=O)NC(=O)[C@H](C)NC(=O)[C@H](CCCCNC(=O)COCCOCCNC(=O)COCCOCCNC(=O)CC[C@H](NC(=O)CCCCCCCCCCCCCCCCC(=O)O)C(=O)O)NC(=O)[C@H](CCCN)NC(=O)[C@H](CC(=O)O)NC(=O)[C@H](CC(C)C)NC(=O)[C@](C)(CC(C)C)NC(=O)[C@@H](NC(=O)[C@H](CO)NC(=O)[C@H](Cc1ccncc1)NC(=O)[C@H](CC(=O)O)NC(=O)[C@H](CO)NC(=O)[C@@H](NC(=O)[C@](C)(Cc1ccccc1F)NC(=O)[C@@H](NC(=O)CNC(=O)[C@H](CCC(=O)O)NC(=O)C(C)(C)NC(=O)[C@@H](N)Cc1ccc(O)cc1)[C@@H](C)O)[C@@H](C)O)[C@@H](C)CC)[C@@H](C)O)[C@@H](C)CC)C(=O)N[C@@H](CCC(=O)O)C(=O)NCC(=O)NCC(=O)N1CCC[C@H]1C(=O)N[C@@H](CO)C(=O)N[C@@H](CO)C(=O)NCC(=O)N[C@@H](C)C(=O)N1CCC[C@H]1C(=O)N1CCC[C@H]1C(=O)N1CCC[C@H]1C(=O)N[C@@H](CO)C(N)=O` [Example 239] (H-Y[Aib]EGT[αMePhe(2-F)]TSD[4Pal]SI[αMeL]LD[Orn]K([AEEA-AEEA-γGlu-C18 diacid])AQ[Aib]TFI[dE][αMeY]LIEGGPSSGAPPPS-NH2; N-terminus assumed), the values for the Ki on human GIP receptor, at human Gcg receptor and on human GLP-1R were 0.101 nM, 596 nM and 2.71 nM, respectively. Further, the EC50 came to 0.0353 nM in assay [1] and 0.0376 nM in assay [2].
Turning to `CC[C@H](C)[C@H](NC(=O)[C@H](CC(C)C)NC(=O)[C@](C)(Cc1ccc(O)cc1)NC(=O)[C@@H](CCC(=O)O)NC(=O)[C@@H](NC(=O)[C@H](Cc1ccccc1)NC(=O)[C@H](C)NC(=O)C(C)(C)NC(=O)[C@H](CCC(N)=O)NC(=O)[C@H](C)NC(=O)[C@H](CCCCNC(=O)COCCOCCNC(=O)COCCOCCNC(=O)CC[C@H](NC(=O)CCCCCCCCCCCCCCCCC(=O)O)C(=O)O)NC(=O)[C@H](CCCN)NC(=O)[C@H](CC(=O)O)NC(=O)[C@H](CC(C)C)NC(=O)[C@](C)(CC(C)C)NC(=O)[C@@H](NC(=O)[C@H](CO)NC(=O)[C@H](Cc1ccncc1)NC(=O)[C@H](CC(=O)O)NC(=O)[C@H](CO)NC(=O)[C@@H](NC(=O)[C@](C)(Cc1ccccc1F)NC(=O)[C@@H](NC(=O)CNC(=O)[C@H](CCC(=O)O)NC(=O)C(C)(C)NC(=O)[C@@H](N)Cc1ccc(O)cc1)[C@@H](C)O)[C@@H](C)O)[C@@H](C)CC)[C@@H](C)CC)C(=O)N[C@@H](CCC(=O)O)C(=O)NCC(=O)NCC(=O)N1CCC[C@H]1C(=O)N[C@@H](CO)C(=O)N[C@@H](CO)C(=O)NCC(=O)N[C@@H](C)C(=O)N1CCC[C@H]1C(=O)N1CCC[C@H]1C(=O)N1CCC[C@H]1C(=O)N[C@@H](CO)C(N)=O` [Example 240] (H-Y[Aib]EGT[αMePhe(2-F)]TSD[4Pal]SI[αMeL]LD[Orn]K([AEEA-AEEA-γGlu-C18 diacid])AQ[Aib]AFI[dE][αMeY]LIEGGPSSGAPPPS-NH2), the Ki stood at 0.0284 nM on human GIP receptor, 204 nM on human Gcg receptor and 0.552 nM at human GLP-1R. Besides, the half-maximal effective concentration (EC50) came out at 0.0223 nM in assay [1] and 0.0393 nM in assay [2].
For the compound `CC[C@H](C)[C@H](NC(=O)[C@H](CC(C)C)NC(=O)[C@](C)(Cc1ccc(O)cc1)NC(=O)[C@@H](CCC(=O)O)NC(=O)[C@@H](NC(=O)[C@H](Cc1ccccc1)NC(=O)[C@@H](NC(=O)C(C)(C)NC(=O)[C@H](CCC(N)=O)NC(=O)[C@H](C)NC(=O)[C@H](CCCCNC(=O)COCCOCCNC(=O)COCCOCCNC(=O)CC[C@H](NC(=O)CCCCCCCCCCCCCCCCC(=O)O)C(=O)O)NC(=O)[C@H](CCCN)NC(=O)[C@H](CC(=O)O)NC(=O)[C@H](CC(C)C)NC(=O)[C@](C)(CC(C)C)NC(=O)[C@@H](NC(=O)[C@H](CO)NC(=O)[C@@H](NC(=O)[C@H](CC(=O)O)NC(=O)[C@H](CO)NC(=O)[C@@H](NC(=O)[C@](C)(Cc1ccccc1F)NC(=O)[C@@H](NC(=O)CNC(=O)[C@H](CCC(=O)O)NC(=O)C(C)(C)NC(=O)[C@@H](N)Cc1ccc(O)cc1)[C@@H](C)O)[C@@H](C)O)C(C)C)[C@@H](C)CC)[C@@H](C)O)[C@@H](C)CC)C(=O)N[C@@H](CCC(=O)O)C(=O)NCC(=O)NCC(=O)N1CCC[C@H]1C(=O)N[C@@H](CO)C(=O)N[C@@H](CO)C(=O)NCC(=O)N[C@@H](C)C(=O)N1CCC[C@H]1C(=O)N1CCC[C@H]1C(=O)N1CCC[C@H]1C(=O)N[C@@H](CO)C(N)=O` [Example 241] (H-Y[Aib]EGT[αMePhe(2-F)]TSDVSI[αMeL]LD[Orn]K([AEEA-AEEA-γGlu-C18 diacid])AQ[Aib]TFI[dE][αMeY]LIEGGPSSGAPPPS-NH2; N-terminus assumed), the Ki at human GIP receptor is 0.042 nM; on human Gcg receptor, 167 nM; on human GLP-1R, 0.799 nM. Also, the EC50 in assay [1] is 0.0257 nM; in assay [2], 0.0175 nM.
On to `CC[C@H](C)[C@H](NC(=O)[C@H](CC(C)C)NC(=O)[C@](C)(Cc1ccc(O)cc1)NC(=O)[C@@H](CCC(=O)O)NC(=O)[C@@H](NC(=O)[C@H](Cc1ccccc1)NC(=O)[C@H](C)NC(=O)C(C)(C)NC(=O)[C@H](CCC(N)=O)NC(=O)[C@H](C)NC(=O)[C@H](CCCCNC(=O)COCCOCCNC(=O)COCCOCCNC(=O)CC[C@H](NC(=O)CCCCCCCCCCCCCCCCC(=O)O)C(=O)O)NC(=O)[C@H](CCCN)NC(=O)[C@H](CC(=O)O)NC(=O)[C@H](CC(C)C)NC(=O)[C@](C)(CC(C)C)NC(=O)[C@@H](NC(=O)[C@H](CO)NC(=O)[C@@H](NC(=O)[C@H](CC(=O)O)NC(=O)[C@H](CO)NC(=O)[C@@H](NC(=O)[C@](C)(Cc1ccccc1F)NC(=O)[C@@H](NC(=O)CNC(=O)[C@H](CCC(=O)O)NC(=O)C(C)(C)NC(=O)[C@@H](N)Cc1ccc(O)cc1)[C@@H](C)O)[C@@H](C)O)C(C)C)[C@@H](C)CC)[C@@H](C)CC)C(=O)N[C@@H](CCC(=O)O)C(=O)NCC(=O)NCC(=O)N1CCC[C@H]1C(=O)N[C@@H](CO)C(=O)N[C@@H](CO)C(=O)NCC(=O)N[C@@H](C)C(=O)N1CCC[C@H]1C(=O)N1CCC[C@H]1C(=O)N1CCC[C@H]1C(=O)N[C@@H](CO)C(N)=O` [Example 242] (H-Y[Aib]EGT[αMePhe(2-F)]TSDVSI[αMeL]LD[Orn]K([AEEA-AEEA-γGlu-C18 diacid])AQ[Aib]AFI[dE][αMeY]LIEGGPSSGAPPPS-NH2), for which the Ki on human GIP receptor stood at 0.0604 nM; at human Gcg receptor, 95.9 nM; on human GLP-1R it was 0.853 nM. The EC50 in assay [1] was 0.0333 nM; in assay [2] it was 0.0164 nM.
